Measurements from patent publication US10752615B2, “Spirocyclic containing compounds and pharmaceutical uses thereof” (GB005, Inc., priority 2016, dated 2020).

Experiments:
[1] = test system: PBMC stimulated with anti-CD3 and anti-CD28 antibodies; assay: CD3/CD28 mediated PBMC proliferation assay; conditions: Homo sapiens, 72 h, read-out: CD3/CD28 PMBC proliferation IC50 (nM)
Procedure: Individual wells of 96 well tissue culture plates were coated with 50 μL of 5 μg/mL anti-CD3 (OKT3, eBiosciences) overnight at 4° C. Human blood was collected in EDTA containing vacutainer tubes. […] The cells were placed in a humidified 37° C. incubator for 72 hours. Controls included unstimulated cells and media alone.

[2] = test system: experimental autoimmune encephalomyelitis (EAE); assay: Experimental autoimmune encephalomyelitis (EAE) model of multiple sclerosis; type: in vivo, female C57BL/6 mice; conditions: oral gavage once daily, 30 mg/kg
Procedure: TEC kinases play important roles in immune cells and pathogenic microglia in multiple sclerosis. The efficacy of compound 16 was evaluated in experimental autoimmune encephalomyelitis (EAE), a mouse model of multiple sclerosis. […] A group of ten naïve C57BL/6 mice was maintained as a negative control. […] Mouse is not alert. 5.0—Death or severe paralysis resulting in euthanasia.

[3] = target: BTK (Homo sapiens (Human), UniProt Q06187); assay: Kinase inhibition assay (Nanosyn, microfluidic detection), BTK; type: biochemical; conditions: 1 mM ATP, 3 hours at 25° C.
Sequence of BTK (Q06187 whole entry): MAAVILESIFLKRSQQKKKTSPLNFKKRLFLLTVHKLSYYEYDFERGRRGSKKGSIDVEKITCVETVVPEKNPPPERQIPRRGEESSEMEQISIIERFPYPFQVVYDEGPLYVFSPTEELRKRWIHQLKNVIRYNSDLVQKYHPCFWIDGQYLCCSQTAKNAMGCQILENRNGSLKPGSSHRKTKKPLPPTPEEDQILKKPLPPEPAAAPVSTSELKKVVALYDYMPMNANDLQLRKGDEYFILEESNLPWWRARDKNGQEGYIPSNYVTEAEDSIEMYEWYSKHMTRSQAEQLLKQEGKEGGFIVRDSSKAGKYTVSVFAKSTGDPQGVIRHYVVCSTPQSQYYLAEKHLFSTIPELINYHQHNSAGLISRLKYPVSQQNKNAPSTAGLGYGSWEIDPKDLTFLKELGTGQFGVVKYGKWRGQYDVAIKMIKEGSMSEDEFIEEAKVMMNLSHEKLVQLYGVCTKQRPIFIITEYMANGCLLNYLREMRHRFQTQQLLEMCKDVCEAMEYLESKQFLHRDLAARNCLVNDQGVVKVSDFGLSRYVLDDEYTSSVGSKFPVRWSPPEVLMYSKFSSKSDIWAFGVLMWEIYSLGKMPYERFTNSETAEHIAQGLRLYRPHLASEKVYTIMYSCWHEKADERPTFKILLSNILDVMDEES

[4] = target: TXK (Homo sapiens (Human), UniProt P42681); assay: Kinase inhibition assay (Nanosyn, microfluidic detection), TXK; type: biochemical; conditions: 1 mM ATP, 3 hours at 25° C.
Sequence of TXK (P42681 whole entry): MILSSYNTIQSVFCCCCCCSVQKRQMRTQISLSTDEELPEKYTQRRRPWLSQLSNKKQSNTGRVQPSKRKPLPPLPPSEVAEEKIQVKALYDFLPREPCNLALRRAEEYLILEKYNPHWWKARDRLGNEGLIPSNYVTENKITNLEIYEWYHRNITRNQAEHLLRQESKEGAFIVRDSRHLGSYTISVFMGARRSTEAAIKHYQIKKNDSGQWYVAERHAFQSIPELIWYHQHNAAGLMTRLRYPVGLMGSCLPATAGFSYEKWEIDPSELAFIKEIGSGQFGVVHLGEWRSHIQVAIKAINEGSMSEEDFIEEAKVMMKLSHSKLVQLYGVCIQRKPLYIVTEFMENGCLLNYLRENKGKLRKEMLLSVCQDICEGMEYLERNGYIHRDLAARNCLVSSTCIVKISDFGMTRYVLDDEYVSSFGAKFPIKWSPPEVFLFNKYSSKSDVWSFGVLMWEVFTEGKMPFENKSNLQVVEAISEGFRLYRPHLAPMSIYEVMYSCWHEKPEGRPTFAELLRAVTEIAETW

IC50 [3] [nM]	IC50 [4] [nM]	Structure (SMILES)	IC50 [1] [nM]	further results
–	–	C=CC(=O)N1CC[C@]2(C1)C[C@@H](n1c(NC(=O)c3cnc(C(C)C)s3)nc3cc(CN[C@@H](C)C(C)(C)C)ccc31)C2 [Compound 11]	> 300	–
–	–	C=CC(=O)N1CCC2(CC1)CC(n1c(NC(=O)c3ccc(C(F)F)s3)nc3cc(CN[C@@H](C)C(C)(C)C)ccc31)C2 [Compound 12]	> 300	–
0.94	–	C=CC(=O)N1CC[C@]2(C1)C[C@H](n1c(NC(=O)c3ccc(-c4cnco4)s3)nc3ccccc31)C2 [Compound 16]	–	disease severity (EAE score) ([2]; in PEG 400, treated after onset of symptoms, mice): greatly attenuated; symptoms of neurological deficit ([2]; versus vehicle treated animals that rapidly progressed): minimal symptoms
–	–	C=CC(=O)N1CC[C@]2(C1)C[C@H](n1c(NC(=O)c3ccno3)nc3ccccc31)C2 [Compound 45]	60.3	–
–	–	C=CC(=O)N1CC[C@]2(C1)C[C@@H](n1c(NC(=O)c3ccc(-c4cnco4)s3)nc3c(Cl)cccc31)C2 [Compound 72]	> 300	–
–	–	C=CC(=O)N1CC[C@]2(C1)C[C@H](n1c(NC(=O)c3cc4c(s3)CCCC4)nc3ccccc31)C2 [Compound 80]	> 300	–
–	–	C=CC(=O)N1CC[C@]2(C1)C[C@H](n1c(NC(=O)c3cc4ccccc4s3)nc3ccccc31)C2 [Compound 81]	> 300	–
–	–	C=CC(=O)N1CC[C@]2(C1)C[C@@H](n1c(NC(=O)c3ccc(-c4cnco4)s3)nc3c(OC)cccc31)C2 [Compound 88]	> 300	–
–	–	C=CC(=O)N1CC[C@]2(C1)C[C@H](n1c(NC(=O)c3ccc(C(=O)O)s3)nc3ccccc31)C2 [Compound 100]	> 300	–
–	–	C=CC(=O)N1CC[C@]2(C1)C[C@H](n1c(NC(=O)c3ccc(NC(=O)C4CCOCC4)s3)nc3ccccc31)C2 [Compound 112]	> 300	–
3.27	0.37	C=CC(=O)N1CC[C@]2(C1)C[C@H](n1c(NC(=O)c3ccc(-c4ccncn4)s3)nc3ccccc31)C2 [Compound 133]	–	–
8.36	1.01	C=CC(=O)N1CC[C@]2(C1)C[C@H](n1c(NC(=O)c3ccc(-c4cncnc4C)s3)nc3ccccc31)C2 [Compound 134]	–	–
12.7	8.67	C=CC(=O)N1CC[C@]2(C1)C[C@H](n1c(NC(=O)c3ccc(-c4cnc(C)nc4)s3)nc3ccccc31)C2 [Compound 135]	–	–
0.98	0.76	C=CC(=O)N1CC[C@]2(C1)C[C@H](n1c(NC(=O)c3ccc(-c4ccnc(NC)n4)s3)nc3ccccc31)C2 [Compound 137]	–	–
1.54	0.75	C=CC(=O)N1CC[C@]2(C1)C[C@H](n1c(NC(=O)c3ccc(-c4cccc(NC)n4)s3)nc3ccccc31)C2 [Compound 139]	–	–
0.54	0.2	C=CC(=O)N1CC[C@]2(C1)C[C@H](n1c(NC(=O)c3ccc(-c4cncc(NC)n4)s3)nc3ccccc31)C2 [Compound 140]	–	–
1.83	0.29	C=CC(=O)N1CC[C@]2(C1)C[C@H](n1c(NC(=O)c3ccc(-c4cc(N)ncn4)s3)nc3ccccc31)C2 [Compound 141]	–	–
0.62	0.48	C=CC(=O)N1CC[C@]2(C1)C[C@H](n1c(NC(=O)c3ccc(-c4cncc(NC)c4)s3)nc3ccccc31)C2 [Compound 142]	–	–
7.92	9.08	C=CC(=O)N1CC[C@]2(C1)C[C@H](n1c(NC(=O)c3ccc(-c4ccc(C)nc4)s3)nc3ccccc31)C2 [Compound 143]	–	–
3.45	1.51	C=CC(=O)N1CC[C@]2(C1)C[C@H](n1c(NC(=O)c3ccc(-c4ccc(CO)nc4)s3)nc3ccccc31)C2 [Compound 144]	–	–
0.49	0.2	C=CC(=O)N1CC[C@]2(C1)C[C@H](n1c(NC(=O)c3ccc(-c4cc(NC)ncn4)s3)nc3ccccc31)C2 [Compound 145]	–	–
0.57	0.22	C=CC(=O)N1CC[C@]2(C1)C[C@H](n1c(NC(=O)c3ccc(-c4ccnc(CO)c4)s3)nc3ccccc31)C2 [Compound 146]	–	–
0.41	0.21	C=CC(=O)N1CC[C@]2(C1)C[C@H](n1c(NC(=O)c3ccc(-c4ccnc(C)c4)s3)nc3ccccc31)C2 [Compound 147]	–	–
0.7	0.24	C=CC(=O)N1CC[C@]2(C1)C[C@H](n1c(NC(=O)c3ccc(-c4c[nH]nc4C)s3)nc3ccccc31)C2 [Compound 156]	–	–
